From US9023821B2, “Use of MicroRNA for treating diseases associated with a dysfunction of the cilia in multiciliated epithelial cells” (Centre National de la Recherche Scientifique, priority 2009, dated 2015)

Legend:
[1] = test system: human airway epithelial cells (HAECs); test: Agilent miRNA chips, miRNA expression at four stages of differentiation of HAECs; conditions: for Modulation (ratio of the level of intensity of expression in log2 in two stages of differentiation) measured with the Agilent chips, D7 − D0 / Modulation (ratio of the level of intensity of expression in log2 in two stages of differentiation) measured with the Agilent chips, FC − D7 / Modulation (ratio of the level of intensity of expression in log2 in two stages of differentiation) measured with the Agilent chips, WD − D0 / Modulation (ratio of the level of intensity of expression in log2 in two stages of differentiation) measured with the Agilent chips, WD − FC / Level of intensity of expression in log2 measured with the Agilent chips, D0 / Level of intensity of expression in log2 measured with the Agilent chips, D7 / Level of intensity of expression in log2 measured with the Agilent chips, FC / Level of intensity of expression in log2 measured with the Agilent chips, WD: Table VI; for Modulation (ratio of the level of intensity of expression in log2 at two stages of differentiation), FC − D7 / Modulation (ratio of the level of intensity of expression in log2 at two stages of differentiation), WD − FC: Agilent miRNA chips, Table V; for Level of intensity of expression in log2 measured with the Agilent chips, D0: stage D0; for Level of intensity of expression in log2 measured with the Agilent chips, D7: stage D7; for Level of intensity of expression in log2 measured with the Agilent chips, FC: stage FC; for Level of intensity of expression in log2 measured with the Agilent chips, WD: stage WD
Text: In parallel with the high-throughput sequencing of the microRNAs, the repertoire of expression of the microRNAs (microRNAome) is investigated using the technology of Agilent® microRNA chips. For this, RNA samples from the same patients as before were used, labeled and hybridized on Agilent® miRNA chips (Human miRNA Microarray v2, containing 866 human miRNAs and 89 human viral miRNAs, i.e. all the human miRNAs contained and referenced in Sanger miRBase v.12.0, Agilent Technologies, France) using the “miRNA labeling and hybridization” kit, following the supplier's instructions (Agilent Technologies).
The inventors then used the Agilent miRNA chips to investigate the repertoire of expression of the miRNAs of the human airway epithelium and compare the results obtained in high-throughput sequencing with those obtained with Agilent® commercial miRNA chips.

[2] = test system: human airway epithelial cells (HAECs); test: High-throughput sequencing (HTS) of miRNAs at four stages of differentiation of HAECs; conditions: for Modulation (ratio of the level of intensity of expression in log2 in two stages of differentiation) measured by high-throughput sequencing, D7 − D0 / Modulation (ratio of the level of intensity of expression in log2 in two stages of differentiation) measured by high-throughput sequencing, FC − D7 / Modulation (ratio of the level of intensity of expression in log2 in two stages of differentiation) measured by high-throughput sequencing, WD − D0 / Modulation (ratio of the level of intensity of expression in log2 in two stages of differentiation) measured by high-throughput sequencing, WD − FC / Level of intensity of expression in log2 measured by high-throughput sequencing, D0 / Level of intensity of expression in log2 measured by high-throughput sequencing, D7 / Level of intensity of expression in log2 measured by high-throughput sequencing, FC / Level of intensity of expression in log2 measured by high-throughput sequencing, WD: Table VI; for Level of intensity of expression in log2 At the differentiated stage (WD) measured in HTS: healthy human airway epithelial tissue; for Level of intensity of expression in log2 measured by high-throughput sequencing, D0: stage D0; for Level of intensity of expression in log2 measured by high-throughput sequencing, D7: stage D7; for Level of intensity of expression in log2 measured by high-throughput sequencing, FC: stage FC; for Level of intensity of expression in log2 At the differentiated stage (WD) measured in HTS / Level of intensity of expression in log2 measured by high-throughput sequencing, WD: stage WD
Text: The total RNAs were extracted from HAECs cultivated at the air-liquid interface at four stages of differentiation: ALI-D0 (0 day), ALI-D7 (7 days), ALI-FC (during appearance of the first cilia at about 14 days) and ALI-WD (wholly differentiated at about 21 days). The cells are lysed in reagent with Trizol® (Invitrogen). The total RNAs containing small RNAs and microRNAs are purified on Qiagen RNEasy columns (Qiagen) according to the supplier's instructions.
The total RNAs containing small RNAs and microRNAs are isolated as before. The procedure is based on the Applied Biosystems Ligase-Enhanced Genome Detection technology (LEGenD™); the SOLiD™ Small RNA Expression kit (Applied Biosystems, France) was used. With this method it is possible to convert the small RNAs of a sample into a library of double-stranded DNA; it was developed by Applied Biosystems SOLiD™ System for a new generation of high-throughput sequencing.
The high-throughput sequencing of the microRNAs was carried out according to the supplier's recommendations. Briefly, the total RNAs containing the small RNAs are hybridized (65° C., 10 min, then at 16° C., 5 min) and ligated (16° C., 2-16 h in a thermocycler) with the Adaptor Mix A for producing a matrix for sequencing the 5′ end of the small RNAs, or with the Adaptor Mix B for sequencing the 3′ end. The samples are then reverse-transcribed (42° C., 30 min) to synthesize the complementary DNA (cDNA). The library of small RNAs is amplified by PCR and after migration on polyacrylamide gel the amplified small RNAs are cut out and extracted from the gel according to their size (length of about 105-150 bases, according to the supplier's instructions), eluted and resuspended in nuclease-free water. The concentration of nucleic acids is then measured and normalized before proceeding with preparation of the samples for sequencing.
For each microRNA sequenced, the number of sequences of the 5p strand and of the 3p strand of the microRNA was normalized to 10^6 sequences and converted to percentage abundance of expression for each of the microRNAs. The data were then normalized according to a linear model and an empirical Bayesian method using software R. For subsequent analyses, only the microRNAs were retained for which the percentage expression (or abundance) is greater than 1% of the total of the microRNAs in at least one culture condition, with a |Log2 Ratio| below 0.5 and an adjusted P-value below 0.05.

[3] = test system: basal cells and pyramidal cells of the airway epithelium; test: miRNA expression in sorted basal cells versus pyramidal cells (ciliated + secretory), HTS and Agilent chips; parameters: species or system human; conditions: for Modulation of expression of the miRNAs in pyramidal cells (323(−)) relative to basal cells 323(+): HTS and Agilent chips; for Intensity of the level of expression in log2 in pyramidal cells (323(−)): pyramidal cells (ciliated + secretory)
Description: After dissociation of the stroma of nasal polyps, the epithelial cells (about 20.10^6) are incubated in PBS-BSA-EDTA for 30 min and then incubated with labeled antibody CD151-PE and anti-TF (tissue factor)-FITC for 20 min, 4° C. (see Hajj, R. et al., Stem Cells 25, 139-148 (2007)). After washing twice, the cells are taken up in PBS-EDTA and incubated with DAPI for labeling the cells whose integrity has been altered.
Cell sorting was carried out on the FACSAria sorter (BD Biosciences) equipped with 3 lasers, blue, red and violet. Dead cells, aggregates and double cells were excluded. The doubly positive population of basal cells (CD151+/FT+) and the negative population of cylindrical cells (containing ciliated cells and mucus-secreting cells) (CD151−/FT−) were selected and sorted at a rate of 5000 events/s ([…]). The purity and identity of the sorted cells were then verified by cytometry and immunocytochemistry.
Like the native airway epithelium, the model of differentiation in vitro used in these tests consists of basal cells, ciliated cells and mucus-secreting cells. In order to identify the repertoires of the miRNAs specific to each of the cellular types, the inventors used cell sorting by flow cytometry by means of specific markers (Hajj, R. et al. 2007). Using this technique, adult airway progenitor cells (corresponding a priori to basal cells) were isolated, selected and sorted (such cells appear doubly positive for tetraspanin CD151 and for the tissue factor) from the pyramidal cells (i.e. ciliated cells and mucus-secreting cells) which appear negative for these same markers. These were purified from polyps or from nasal conchae obtained from 3 separate donors.
After extracting the total RNAs, the expression profiles of the miRNAs were established by means of Agilent® commercial chips or by high-throughput sequencing (HTS). […] For the first time, the inventors thus attribute a repertoire of expression of the miRNAs specifically to separate cellular types of the airway epithelium during differentiation.

Row | Substance | Modulation (ratio of the level of intensity of expression in log2 in two stages of differentiation) measured with the Agilent chips, D7 − D0 [1] | Modulation (ratio of the level of intensity of expression in log2 at two stages of differentiation), FC − D7 [1] | Modulation (ratio of the level of intensity of expression in log2 in two stages of differentiation) measured with the Agilent chips, FC − D7 [1] | Modulation (ratio of the level of intensity of expression in log2 in two stages of differentiation) measured with the Agilent chips, WD − D0 [1] | Modulation (ratio of the level of intensity of expression in log2 at two stages of differentiation), WD − FC [1] | Modulation (ratio of the level of intensity of expression in log2 in two stages of differentiation) measured with the Agilent chips, WD − FC [1] | Level of intensity of expression in log2 measured with the Agilent chips, D0 [1] | Level of intensity of expression in log2 measured with the Agilent chips, D7 [1] | Level of intensity of expression in log2 measured with the Agilent chips, FC [1] | Level of intensity of expression in log2 measured with the Agilent chips, WD [1] | Modulation (ratio of the level of intensity of expression in log2 in two stages of differentiation) measured by high-throughput sequencing, D7 − D0 [2] | Modulation (ratio of the level of intensity of expression in log2 in two stages of differentiation) measured by high-throughput sequencing, FC − D7 [2] | Modulation (ratio of the level of intensity of expression in log2 in two stages of differentiation) measured by high-throughput sequencing, WD − D0 [2] | Modulation (ratio of the level of intensity of expression in log2 in two stages of differentiation) measured by high-throughput sequencing, WD − FC [2] | Level of intensity of expression in log2 At the differentiated stage (WD) measured in HTS [2] | Level of intensity of expression in log2 measured by high-throughput sequencing, D0 [2] | Level of intensity of expression in log2 measured by high-throughput sequencing, D7 [2] | Level of intensity of expression in log2 measured by high-throughput sequencing, FC [2] | Level of intensity of expression in log2 measured by high-throughput sequencing, WD [2] | Modulation of expression of the miRNAs in pyramidal cells (323(−)) relative to basal cells 323(+) [3] | other results
1 | hsa-let-7f: human miRNA, SEQ ID No. 161 (UGAGGUAGUAGAUUGUAUAGUU; expressed or natural sequence; listed as Homo sapiens) | 1.63 log2 | −0.73 log2 | −0.73 log2 | 1.08 log2 | 0.17 log2 | 0.17 log2 | 11.11 log2 | 12.75 log2 | 12.01 log2 | 12.19 log2 | 0.22 log2 | −0.56 log2 | 0.11 log2 | 0.45 log2 | 5.35 log2 | 5.24 log2 | 5.46 log2 | 4.90 log2 | 5.35 log2 | −0.94 | Intensity of the level of expression in log2 in basal cells (323(+)) [3]: 10.82 log2; Intensity of the level of expression in log2 in pyramidal cells (323(−)) [3]: 9.88 log2
2 | hsa-let-7g: human miRNA, SEQ ID No. 162 (UGAGGUAGUAGUUUGUACAGUU; expressed or natural sequence; listed as Homo sapiens) | 1.83 log2 | −0.54 log2 | −0.54 log2 | 1.50 log2 | 0.21 log2 | 0.21 log2 | 9.30 log2 | 11.12 log2 | 10.59 log2 | 10.80 log2 | −0.24 log2 | −0.03 log2 | 0.56 log2 | 0.83 log2 | 12.40 log2 | 11.84 log2 | 11.60 log2 | 11.57 log2 | 12.40 log2 | −0.15 | Intensity of the level of expression in log2 in basal cells (323(+)) [3]: 8.37 log2; Intensity of the level of expression in log2 in pyramidal cells (323(−)) [3]: 8.22 log2
3 | hsa-miR-15a: human miRNA, SEQ ID No. 9 (UAGCAGCACAUAAUGGUUUGUG; expressed or natural sequence; listed as Homo sapiens) | 2.36 log2 | −0.39 log2 | −0.39 log2 | 1.87 log2 | −0.10 log2 | −0.10 log2 | 7.74 log2 | 10.10 log2 | 9.71 log2 | 9.61 log2 | 1.41 log2 | −0.19 log2 | 1.57 log2 | 0.35 log2 | 7.68 log2 | 6.11 log2 | 7.52 log2 | 7.33 log2 | 7.68 log2 | −2.10 | Intensity of the level of expression in log2 in basal cells (323(+)) [3]: 7.86 log2; Intensity of the level of expression in log2 in pyramidal cells (323(−)) [3]: 5.75 log2
